We go through two compounds from US5571534A, “Drug formulations for parenteral use” (Orion-yhtyma Oy, priority 1991, dated 1996).

In brackets after ≈: the same amount, converted by molar mass. Where two headings read alike, the source gives them in different places.

The nature of data set [1]: HPLC measurement of the solubility of the anti-estrogen in an aqueous solution of 2-hydroxypropyl cyclodextrin. Type of data set: physicochemical. The conditions noted are these: room temperature; for solubility: read-out: Toremifene solubility (mg of toremifene / ml of cyclodextrin-water soln.). As to the method:
A weighed amount of 2-hydroxypropyl cyclodextrin was dissolved into distilled water by shaking with a shaker. The so formed clear solution was equilibrated with a large excess of antiestrogen at the boiling point. […] The solution was kept overnight at room temperature and the excess of precipitated antiestrogen was removed by centrifugation.
The separations were carried out at room temperature on a 35 * 4.6 mm stainless steel column (packed with 3-μm spherical octadecylsilanebonded silica particles; HS-3 C-18, (Perkin-Elmer, USA)
The mobile phase consisted of a mixture of acetonitrile: 0.05 M aqueous phosphate buffer containing 0.004 M of dimethyloctyl amine with a pH of 7.4. The flow rate was 0.8 ml/min.

A further data set concerns multidrug resistance. As to conditions: high vs low plasma concentrations; J Clinical Oncology 1989; cited from earlier work.
A short description of data set [2]: Toremifene concentration in emulsion (Emulsan 20%) after filtration, spectrophotometric at 278 nm. The class given is physicochemical. As to conditions: for Concentration after filtration: toremifene citrate in Emulsan 20%. How it is done:
Emulsions prepared by dissolving the drug in a commercial fat emulsion.
The commercial fat emulsion used was Emulsan®20% (manufacturer Leiras-Kabi Infusion Ltd., Finland). […] The toremifene concentrations were 10 mg/ml, 14 mg/ml and 20 mg/ml. After the homogenization the samples were filtered through the 0.2 μm, 0.45 μm and 1.2 μm filters.
The concentration of toremifene was determined from the filtrate with a spectrofotometric method using the wave length of 278 nm. The samples were dissolved in methanol and diluted in the concentration of 0.02 mg/ml.

In turn, `CNCCOc1ccc(/C(=C(/CCCl)c2ccccc2)c2ccccc2)cc1` [desmethyl toremifene] showed a Desmethyl toremifene solubility (ml of desmethyl toremifene / ml of cyclodextrin-water soln.) in data set [1] (125 mg β-HPC/ml of aqueous soln.) of 21 mg/mL.

For `CN(C)CCOc1ccc(/C(=C(/CCCl)c2ccccc2)c2ccccc2)cc1` [toremifene], in the data set with multidrug resistance, the reversing multidrug resistance result is “more effective in reversing multidrug resistance than low concentrations”. Further, the solubility in data set [1] (aqueous 2-hydroxypropyl cyclodextrin solution, 500 mg β-HPC/ml of aqueous soln.) was determined as 87.7 mg/mL (≈ 216 mM); in data set [1] (aqueous β-hpc solution, 25 mg/ml, 25 mg β-HPC/ml of aqueous soln.) it was 7.4 mg/mL (≈ 18.2 mM); in data set [1] (aqueous β-hpc solution, 63 mg/ml, 63 mg β-HPC/ml of aqueous soln.), 14.1 mg/mL (≈ 34.7 mM); in data set [1] (aqueous β-hpc solution, 125 mg/ml, 125 mg β-HPC/ml of aqueous soln.), 21.7 mg/mL (≈ 53.5 mM); in data set [1] (aqueous β-hpc solution, 250 mg/ml, 250 mg β-HPC/ml of aqueous soln.), 53 mg/mL (≈ 131 mM); in data set [1] (aqueous γ-hpc solution, 125 mg/ml, 125 mg Γ-HPC/ml of aqueous soln.) it was 36.3 mg/mL (≈ 89.4 mM). Also, the solubility in data set [1] (aqueous γ-hpc solution, 250 mg/ml, 250 mg Γ-HPC/ml of aqueous soln.) stood at 61.1 mg/mL (≈ 151 mM); in data set [1] (aqueous γ-hpc solution, 500 mg/ml, 500 mg Γ-HPC/ml of aqueous soln.) it was 125 mg/mL (≈ 309 mM); in data set [1] (water, 0 mg β-HPC/ml of aqueous soln.), 0.3 mg/mL (≈ 0.739 mM). Also, the Concentration after filtration in data set [2] (10 mg/ml before filtration, 0.2 μm filter) was found to be 4400 µg/mL; in data set [2] (10 mg/ml before filtration, 0.45 μm filter) it was 4000 µg/mL; in data set [2] (10 mg/ml before filtration, 1.2 μm filter) it was 4400 µg/mL; in data set [2] (14 mg/ml before filtration, 0.45 μm filter), 4300 µg/mL; in data set [2] (14 mg/ml before filtration, 1.2 μm filter) it was 3700 µg/mL; in data set [2] (20 mg/ml before filtration, 0.45 μm filter) it was 3600 µg/mL. Besides, in data set [2] (20 mg/ml before filtration, 1.2 μm filter), the Concentration after filtration was found to be 3600 µg/mL. The “solubility of toremifene by encapsulating in an emulsion droplet” value in data set [2] (emulsion droplet) is on record as “can be increased considerably”.
